Source: patent US20220267341A1, “SOLID FORMS OF TERT-BUTYL (S)-2((2S,3R)-1-AMINO-3-HYDROXY-1-OXOBU TAN-2-YL)-1-OXO-2, 5-DIAZASPIRO [3.4] OCTAN E-5-CARBOXYLATE AND METHODS OF PREPARING THEM” (NAUREX INC., priority 2019, published 2022)

Assays:
Format in all cases: physicochemical
[1] = Competitive slurry in mixtures of water and isopropanol; conditions: 25° C.
Method: Competitive slurry in mixtures of water and isopropanol indicates the phase boundary between the crystalline Form I and crystalline Form II is between water activity of 0.66-0.78 at 25° C. At water activity above 0.78, crystalline Form II is the stable form, whereas at water activity below 0.66, crystalline Form I is the stable form

[2] = DVS water vapor desorption analysis; conditions: 25° C.
Method: DVS: The following method was used for the water vapor desorption analysis using a DVS Advantage (Surface Measurement Systems). • Temperature: 25° C. • RH program: 95, 90, 80, 70, 60, 50, 40, 35, 30, 20, 10, 0%. • Dm/dt (%/min.): 0.0005 • Minimum equilibrium time: 120 minutes • Maximum equilibrium time: 2000 minutes
The solid was also subjected to DVS measurement and lost about 11% water at 0% RH.

[3] = DSC thermogram (dehydration event); conditions: 20 to 180° C. at 10° C./min, pin-hole lid
Method: DSC: DSC thermograms were obtained using a TA Instruments DSC Q2000. Approximately 1-2 mg of sample was weighed into a Tzero aluminum pan and hermetically sealed with a Tzero hermetic lid. For crystalline Form II samples, the lid was punched with a pin-hole. • DSC: Sample was scanned from 20 to 180° C. at 10° C./min.
(§1) In another experiment, about 2 g of crystalline Form I of Compound A from Example 1 was weighed into a 20 mL scintillation vial and 4 mL of Milli-Q water was added into the vial. The resulting suspension was stirred with a spatula and left at room temperature for one day. The residual was then filtered with vacuum and dried in a vacuum oven at room temperature for about 20 hours. XRPD was taken after drying and Form II was confirmed since it was essentially the same as FIG. 3, top panel. […] The dried sample was then dehydrated in a TGA pan at 80° C. (ramp from room temperature to 80° C. at 10° C./min and then isothermal for 2 min).

[4] = Thermogravimetric analysis (TGA); conditions: heated from room temperature at 10° C./minute; consistent with a dihydrate
Method: TGA: Approximately 5-10 mg sample was heated from room temperature to 250° C. at 10° C./minute.
as §1

[5] = Dehydration in a TGA pan at 80° C., form checked by XRPD and DSC; conditions: ramp to 80° C. at 10° C./min then isothermal for 2 min
Method: as §1

Compound | water activity at which the form is the stable form [1] | water lost in DVS ([2]; 0% RH) | water loss in DVS at or above 20% RH ([2]; at or above 20% RH) | possible dehydration event in DSC [3] | TGA weight loss [4] [%] | water activity at which the form is the stable form ([1]; dihydrate) | solid form after dehydration [5]
C[C@@H](O)[C@@H](C(N)=O)N1C[C@@]2(CCCN2C(=O)OC(C)(C)C)C1=O [crystalline Form I of Compound A, tert-butyl (S)-2-((2S,3R)-1-amino-3-hydroxy-1-oxobutan-2-yl)-1-oxo-2,5-diazaspiro[3.4]octane-5-carboxylate] | below 0.66 |  |  |  |  |  | 
C[C@@H](O)[C@@H](C(N)=O)N1C[C@@]2(CCCN2C(=O)OC(C)(C)C)C1=O [crystalline Form II of Compound A, tert-butyl (S)-2-((2S,3R)-1-amino-3-hydroxy-1-oxobutan-2-yl)-1-oxo-2,5-diazaspiro[3.4]octane-5-carboxylate dihydrate] |  | about 11% | did not lose water | about 82 °C | 9.6 | above 0.78 | mostly crystalline Form I with residual amorphous content and very small amount of crystalline Form II
